From EP1709964A2, “A method of cosmetic depigmentation care by applying at least one aurone” (ENGELHARD LYON, priority 2005, dated 2006)
Like-named read-outs stand apart in the source and are kept apart here.

Target: T1, Human tyrosinase (Homo sapiens, UniProt P14679)
T1 construct: Normal human melanocytes (originating from abdominal plasty) are sown in a 24-well plate; endogenous in cells; host or cells: normal human melanocytes from abdominal plasty; donors of light, brown and black phototype
T1 sequence (P14679 19-529): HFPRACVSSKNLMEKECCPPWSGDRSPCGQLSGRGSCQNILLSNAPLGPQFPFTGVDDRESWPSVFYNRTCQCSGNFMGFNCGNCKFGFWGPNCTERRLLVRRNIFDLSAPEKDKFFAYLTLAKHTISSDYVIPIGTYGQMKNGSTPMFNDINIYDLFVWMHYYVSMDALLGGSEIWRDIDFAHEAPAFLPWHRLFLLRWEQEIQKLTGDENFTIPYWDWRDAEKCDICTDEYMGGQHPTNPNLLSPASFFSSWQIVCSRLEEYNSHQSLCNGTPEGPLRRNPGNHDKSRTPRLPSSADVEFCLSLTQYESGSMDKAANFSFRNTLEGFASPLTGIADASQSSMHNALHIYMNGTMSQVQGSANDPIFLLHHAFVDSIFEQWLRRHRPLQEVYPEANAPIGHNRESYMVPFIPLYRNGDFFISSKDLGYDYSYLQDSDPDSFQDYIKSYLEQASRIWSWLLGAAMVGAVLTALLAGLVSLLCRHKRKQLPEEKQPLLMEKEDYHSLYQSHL
Test: Inhibition of human tyrosinase in a monolayer after 24 h application of the actives on normal human melanocytes (MBTH/L-Dopa, OD 490 nm/protein)
Assay type: cell-based
Conditions: read-out: Inhibition of human tyrosinase after application on normal human melanocytes, percentage inhibition
Procedure: Normal human melanocytes (originating from abdominal plasty) are sown in a 24-well plate at the rate of 80,000 cells per well. They are cultivated up to confluence and the actives are applied for 24 hours in the culture media. After 24 hours, the media are removed and the melanocytes are picked up by mechanical action. An extraction is made by heat shock and the supernatants are then recovered and then incubated with MBTH (Sigma) and L-Dopa (Sigma).
The compound obtained in Example 9b was tested on melanocytes originating from various donors but of light phototypes according to the method described in Example 15. […] Table 6 : Inhibition of tyrosinase by compound 9b on 4 different donors.
The compound obtained in Example 9b is tested on cultures of melanocytes originating from 2 donors of brown phototypes and from one donor of negroid phototype. The method applied is that described in Example 15.
A study is made with molecules known in the literature for their depigmenting activity. These molecules are applied to the model described in Example 15 so as to compare their efficiency with respect to the aurones described above.

| SMILES | inhibition at 100 µM (10^-4M, 24 hours) [%] | inhibition at 10 µM (10^-5M, 24 hours) [%] | inhibition at 10 µM [%] | inhibition at 100 µM [%] |
| --- | --- | --- | --- | --- |
| COc1cc(/C=C2\Oc3cc(O)cc(O)c3C2=O)ccc1O [Example 9d] | 3.92 | 20.2 | – | – |
| COc1cc(OC)c2c(c1)O/C(=C\c1cccs1)C2=O [Example 5p, (Z)-4,6-Dimethoxy-2-[(thiophene)methylene]benzofuran-3(2H)-one] | 31.3 | 6.4 | – | – |
| O=c1cc(-c2ccccc2)oc2cc(O)cc(O)c12 [Chrysin, reference compound] | – | -6.1 ± 22.9 | – | – |
| COc1cc(OC)c2c(c1)O/C(=C\c1ccc[nH]1)C2=O [Example 5s, (Z)-4,6-Dimethoxy-2-[(pyrrole)methylene]benzofuran-3(2H)-one] | – | – | 0 | 13.7 |
| COc1cc(OC)c2c(c1)O/C(=C\c1ccc(S(=O)(=O)O)cc1)C2=O [Example 5e, (Z)-4,6-dimethoxy-2-(4'-sulfonatebenzylidene)benzofuran-3(2H)-one] | 0 | 1.44 | – | – |
| O=C1/C(=C/c2ccc[nH]2)Oc2cc(O)cc(O)c21 [Example 7s, (Z)-4,6-Dihydroxy-2-[(pyrrole)methylene]benzofuran-3(2H)-one] | – | – | 9.1 | 22.8 |
| CCc1ccccc1/C=C1\Oc2cc(O)cc(O)c2C1=O [Example 7l] | 0 | 6.1 | – | – |
| CC(C)c1ccc(/C=C2\Oc3cc(O)cc(O)c3C2=O)cc1 [Example 7i] | 0 | 31.9 | – | – |
| Cc1cc(C)c(/C=C2\Oc3cc(O)cc(O)c3C2=O)[nH]1 [Example 7t, (Z)-4,6-Dihydroxy-2-[(3,5-dimethylpyrrole)methylene]benzofuran-3(2H)-one] | 26.4 | 0 | – | – |
| CCc1ccc(/C=C2\Oc3cc(O)cc(O)c3C2=O)s1 [Example 7r, (Z)-4,6-Dihydroxy-2-[(5-ethylthiophene)methylene]benzofuran-3(2H)-one] | 13.8 | 0 | – | – |
| O=C1/C(=C/c2ccccc2O)Oc2cc(O)cc(O)c21 [Example 9c] | 12.8 | 4.32 | – | – |
| COc1cc(OC)c2c(c1)O/C(=C\c1ccc(S(=O)(=O)O)cc1S(=O)(=O)O)C2=O [Example 5f, (Z)-4,6-dimethoxy-2-(2',4'-disulfonatebenzylidene)benzofuran-3(2H)-one] | 9.36 | 2.88 | – | – |
| CCc1ccccc1/C=C1\Oc2cc(O)ccc2C1=O [Example 3b, (Z)-2-(2'-Ethyl)Benzylidene-6-Hydroxybenzofuran-3(2H)-one] | 0 | 0 | – | – |
| COc1cc(OC)c2c(c1)O/C(=C\c1ccc(C)s1)C2=O [Example 5q, (Z)-4,6-Dimethoxy-2-[(5-methylthiophene)methylene]benzofuran-3(2H)-one] | 4.8 | 0 | – | – |
| COc1cc(OC)c2c(c1)O/C(=C\c1[nH]c(C)cc1C)C2=O [Example 5t, (Z)-4,6-Dimethoxy-2-[(3,5-dimethylpyrrole)methylene]benzofuran-3(2H)-one] | 5.1 | 0 | – | – |
| CC(C)(C)c1ccc(/C=C2\Oc3cc(O)cc(O)c3C2=O)cc1 [Example 7k] | 0 | 25.1 | – | – |
| CCc1ccc(/C=C2\Oc3cc(O)ccc3C2=O)cc1 [Example 3a, (Z)-2-(4'-Ethyl)Benzylidene-6-Hydroxybenzofuran-3(2H)-one] | 0 | 23.9 | – | – |
| O=c1cc(-c2ccc(O)cc2)oc2cc(O)cc(O)c12 [Apigenin, reference compound] | -59.1 ± 23 | -40.8 ± 7.68 | – | – |
| O=C1/C(=C/c2ccc(S(=O)(=O)O)cc2)Oc2cc(O)cc(O)c21 [Example 7e] | 0 | 4.83 | – | – |
| COc1cc(OC)c2c(c1)O/C(=C\c1cc(C)c(C)o1)C2=O [Example 5o, (Z)-4,6-Dimethoxy-2-[(4,5-dimethylfuran)methylene]benzofuran-3(2H)-one] | 23.2 | 12.1 | – | – |
